IC50 and viability, T/C data for seven compounds are collected here from PubChem BioAssay AID1919002 (Molecular Pharmacology Branch, DTP, NCI, 2023).

The subject of this assay is 743489-274-T-PDC complex spheroid growth. The experiment in a line: Anticancer human tumor 743489-274-T-PDC patient-derived renal cell carcinoma cell line growth inhibition [AhR]. The conditions noted are these: for viability, T/C: stronger effect = lower value. A digest of the protocol: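 Complex tumor spheroids co-cultured with HUVEC and human MSC stroma; AhR antagonists tested in combination with standard-of-care and investigational agents. Top concentration at or near clinical Cmax (else 10 microM), half-log dilutions; growth expressed as percent test/control.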

Setting [1] is: curve of first compound, second compound 0.1 µM.
Setting [2] is: curve of first compound, second compound 0.316 µM.
Setting [3] is: curve of first compound, second compound 1 µM.
Where [4] appears, read: curve of first compound, second compound 3.16 µM.
[5] abbreviates: curve of first compound, second compound 10 µM.
[6] abbreviates: second compound 0.1 µM, first compound 0.0316 µM.
The mark [7] stands for this setting: second compound 0.1 µM, first compound 0.1 µM.
Where [8] appears, read: second compound 0.316 µM, first compound 0.0316 µM.
[9] abbreviates: second compound 0.316 µM, first compound 0.1 µM.
Where [10] appears, read: second compound 1 µM, first compound 0.0316 µM.
Where [11] appears, read: second compound 1 µM, first compound 0.1 µM.
The mark [12] stands for this setting: second compound 3.16 µM, first compound 0.0316 µM.
The mark [13] stands for this setting: second compound 3.16 µM, first compound 0.1 µM.
Where [14] appears, read: second compound 10 µM, first compound 0.0316 µM.
Where [15] appears, read: second compound 10 µM, first compound 0.1 µM.
Where [16] appears, read: second compound 0.1 µM, first compound 0.316 µM.
[17] abbreviates: second compound 0.1 µM, first compound 1 µM.
The mark [18] stands for this setting: second compound 0.1 µM, first compound 3.16 µM.
The mark [19] stands for this setting: second compound 0.1 µM, first compound 10 µM.
Where [20] appears, read: second compound 0.316 µM, first compound 0.316 µM.
Where [21] appears, read: second compound 0.316 µM, first compound 1 µM.
Setting [22] is: second compound 0.316 µM, first compound 3.16 µM.
The mark [23] stands for this setting: second compound 0.316 µM, first compound 10 µM.
Where [24] appears, read: second compound 1 µM, first compound 0.316 µM.
Setting [25] is: second compound 1 µM, first compound 1 µM.
[26] abbreviates: second compound 1 µM, first compound 3.16 µM.
[27] abbreviates: second compound 1 µM, first compound 10 µM.
Setting [28] is: second compound 3.16 µM, first compound 0.316 µM.
The mark [29] stands for this setting: second compound 3.16 µM, first compound 1 µM.
Setting [30] is: second compound 3.16 µM, first compound 3.16 µM.
Setting [31] is: second compound 3.16 µM, first compound 10 µM.
The mark [32] stands for this setting: second compound 10 µM, first compound 0.316 µM.
The mark [33] stands for this setting: second compound 10 µM, first compound 1 µM.
The mark [34] stands for this setting: second compound 10 µM, first compound 3.16 µM.
Where [35] appears, read: second compound 10 µM, first compound 10 µM.

Values joined by “and” are separate entries in the source; they are usually repeats but may differ in a detail not shown here. Identical values can stand only once.
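Note: spheroids exposed to agents for 7 days before readout.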
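Throughout, for viability, T/C: 100% = DMSO vehicle control wells.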

In the case of `Cn1ncnc1C1c2n[nH]c(=O)c3cc(F)cc(c23)NC1c1ccc(F)cc1` (centres undefined) + CC(CO)NC(=O)c1cc(-c2ccc(Cl)cc2)nn(-c2cnn(C)c2)c1=O, the IC50 (usually the concentration that gives 50% inhibition) under setting [1] is above 0.1 µM; the half-inhibitory concentration (IC50) under setting [2] is above 0.1 µM; the half-maximal inhibitory concentration (IC50) under setting [3] is above 0.1 µM; the half-maximal inhibitory concentration (IC50) under setting [4] is above 0.1 µM; the concentration for half-maximal inhibition (IC50) under setting [5] was above 0.1 µM. Also, the viability, T/C (commonly the result in the treated group divided by that in the control group, in per cent) (second compound 0.1 µM, first compound 0.000316 µM) was 90.7%; the viability, T/C (second compound 0.1 µM, first compound 0.001 µM) was 98%; the viability, T/C (second compound 0.1 µM, first compound 0.00316 µM) is 106%; the viability, T/C (second compound 0.1 µM, first compound 0.01 µM) was 95%; the viability, T/C under setting [6] was 89.6%; the viability, T/C under setting [7] was 86.8%. Moreover, the viability, T/C is, setting by setting: (second compound 0.316 µM, first compound 0.000316 µM) 85.5%; (second compound 0.316 µM, first compound 0.001 µM) 95.8%; (second compound 0.316 µM, first compound 0.00316 µM) 115%; (second compound 0.316 µM, first compound 0.01 µM) 88%; under setting [8], 80.6%; under setting [9], 84.8%. The viability, T/C (second compound 1 µM, first compound 0.000316 µM) was 94.1%; the viability, T/C (second compound 1 µM, first compound 0.001 µM) was 97.6%; the viability, T/C (second compound 1 µM, first compound 0.00316 µM) is 102%; the viability, T/C (second compound 1 µM, first compound 0.01 µM) is 87%; the viability, T/C under setting [10] is 82.7%; the viability, T/C under setting [11] is 91.8%. The viability, T/C reads like this: (second compound 3.16 µM, first compound 0.000316 µM) 93.9%; (second compound 3.16 µM, first compound 0.001 µM) 92.2%; (second compound 3.16 µM, first compound 0.00316 µM) 91.4%; (second compound 3.16 µM, first compound 0.01 µM) 92.1%; under setting [12], 89.4%; under setting [13], 93.4%. Besides, the viability, T/C was 83.7% (second compound 10 µM, first compound 0.000316 µM); 86.3% (second compound 10 µM, first compound 0.001 µM); 85% (second compound 10 µM, first compound 0.00316 µM); 99% (second compound 10 µM, first compound 0.01 µM); 90.9% under setting [14]; 83.1% under setting [15].

With `Cc1ccccc1N=Nc1ccc(NC(=O)c2ccnn2C)c(C)c1`, the viability, T/C was 90.5% [middle of 20 runs] (compound 0.1 µM), 90.9% [middle of 20 runs] (compound 0.316 µM) and 86.1% [middle of 20 runs] (compound 1 µM). Moreover, the IC50 (compound alone, run of 08/22/2022) was above 10 µM.

For the compound `COc1cc(C2c3cc4c(cc3C(OC3OC5COC(C)OC5C(O)C3O)C3COC(=O)C23)OCO4)cc(OC)c1O` (centres undefined) + CC(CO)NC(=O)c1cc(-c2ccc(Cl)cc2)nn(-c2cnn(C)c2)c1=O, the half-inhibitory concentration (IC50) was above 10 µM under setting [1]; above 10 µM under setting [2]; above 10 µM under setting [3]; above 10 µM under setting [4]; above 10 µM under setting [5]. Also, the viability, T/C reads like this: under setting [6], 107%; under setting [7], 114%; under setting [16], 95.1%; under setting [17], 95.9%; under setting [18], 99.6%; under setting [19], 97%. For the same compound, the viability, T/C is 99.3% under setting [8]; 118% under setting [9]; 108% under setting [20]; 93.5% under setting [21]; 92% under setting [22]; 90.7% under setting [23]. Besides, the viability, T/C is 98.6% under setting [10]; 96.4% under setting [11]; 101% under setting [24]; 103% under setting [25]; 86.6% under setting [26]; 94.9% under setting [27]. Further, the viability, T/C runs as follows: under setting [12], 99.9%; under setting [13], 97%; under setting [28], 102%; under setting [29], 95.4%; under setting [30], 97.7%; under setting [31], 90.9%. Besides, the viability, T/C runs as follows: under setting [14], 108%; under setting [15], 109%; under setting [32], 103%; under setting [33], 106%; under setting [34], 97%; under setting [35], 92.1%.

With `COc1cccc2c1C(=O)c1c(O)c3c(c(O)c1C2=O)CC(O)(C(=O)CO)CC3OC1CC(N)C(O)C(C)O1` (centres undefined), the viability, T/C runs as follows: (compound 0.0316 µM) 100% and 108% and 103%; (compound 0.1 µM) 102% and 110% and 125%; (compound 0.316 µM) 101% and 112% and 108%; (compound 1 µM) 107% and 105% and 103%; (compound 3.16 µM) 88% and 77.8% and 89.9%; (compound 10 µM) 65.5% and 21.7% and 22.8%. Besides, the IC50 (curve of compound) is > 10 µM and 5.59 µM and 6.23 µM.

`Nc1ccccc1NC(=O)c1ccc(CNC(=O)OCc2cccnc2)cc1` + Cc1cncc(-c2nc(NCCc3c[nH]c4ccccc34)c3ncn(C(C)C)c3n2)c1: the IC50 is 4.64 µM under setting [1]; 3.12 µM under setting [2]; 2.4 µM under setting [3]; 6.83 µM under setting [4]; 9.62 µM under setting [5]. Also, the viability, T/C runs as follows: under setting [6], 104%; under setting [7], 92.7%; under setting [16], 86.5%; under setting [17], 77.7%; under setting [18], 54.2%; under setting [19], 36.6%. Also, the viability, T/C is 92.2% under setting [8]; 93.1% under setting [9]; 89.4% under setting [20]; 74% under setting [21]; 50.1% under setting [22]; 36.3% under setting [23]. For the same compound, the viability, T/C was 88.5% under setting [10]; 84.1% under setting [11]; 87.2% under setting [24]; 73.8% under setting [25]; 42.5% under setting [26]; 29.9% under setting [27]. The viability, T/C is 95.5% under setting [12]; 91.5% under setting [13]; 88.7% under setting [28]; 78.5% under setting [29]; 61.3% under setting [30]; 44.3% under setting [31]. In addition, the viability, T/C was 102% under setting [14]; 102% under setting [15]; 106% under setting [32]; 91.3% under setting [33]; 84.6% under setting [34]; 48.2% under setting [35].

`Nc1ccccc1NC(=O)c1ccc(CNC(=O)OCc2cccnc2)cc1` + Cc1ccccc1N=Nc1ccc(NC(=O)c2ccnn2C)c(C)c1: the half-maximal inhibitory concentration (IC50) reads like this: under setting [1], 4.62 µM; under setting [2], 2.64 µM; under setting [3], 3.67 µM; under setting [4], 2.63 µM; under setting [5], 2.26 µM. Besides, the viability, T/C is 101% under setting [6]; 96.6% under setting [7]; 95.9% under setting [16]; 80.2% under setting [17]; 63% under setting [18]; 25.4% under setting [19]. Also, the viability, T/C reads like this: under setting [8], 99.9%; under setting [9], 99.7%; under setting [20], 84%; under setting [21], 79.7%; under setting [22], 42.7%; under setting [23], 23.8%. The viability, T/C was 89.8% under setting [10]; 95% under setting [11]; 88.2% under setting [24]; 74.3% under setting [25]; 54.7% under setting [26]; 24.5% under setting [27]. In addition, the viability, T/C is, setting by setting: under setting [12], 93.3%; under setting [13], 98%; under setting [28], 88.3%; under setting [29], 70%; under setting [30], 47%; under setting [31], 28.5%. Besides, the viability, T/C reads like this: under setting [14], 86.9%; under setting [15], 95.9%; under setting [32], 88.4%; under setting [33], 66.2%; under setting [34], 44.4%; under setting [35], 28.6%.

For `Cc1cncc(-c2nc(NCCc3c[nH]c4ccccc34)c3ncn(C(C)C)c3n2)c1`, the viability, T/C is 95.2% [middle of 20 runs] (compound 0.1 µM) and 94.5% [middle of 20 runs] (compound 0.316 µM). For the same compound, for the setting “compound alone, run of 08/16/2022”, the IC50 was above 10 µM.
